# Where a SMILES comes first, the peptide text is derived from it. Bridges are numbered along the chain shown (N, C = ends). [ ]: non-standard residue; d: D form.
# Key:
# [1] = system: growth hormone secretion; experiment: inhibition of pentobarbital-stimulated growth hormone release in rats; assay type: in vivo, rat; conditions: serum GH 20 minutes after dosing
# Procedure: D-Val^1 -somatostatin also was tested for its activity with respect to the release of growth hormone. The procedure which was employed is carried out using normal male SpragueDawley rats weighing 100-120 grams (Laboratory Supply Company, Indianapolis, Indiana). The test is a modification of the method of P. Brazeau, W. Vale, and R. Guilleman, Endocrinology, 94 184 (1974). In this assay, five groups of eight rats each were employed. Sodium pentobarbital was administered intraperitoneally to all of the rats to stimulate growth hormone secretion. One group served as the control and received only saline. Two of the groups received somatostatin, one at 2 μg./rat, subcutaneously, and the other at 50 μg./rat, subcutaneously. The other two groups received D-Val^1 -somatostatin, one at 2 μg./rat, subcutaneously, and the other at 50 μg./rat, subcutaneously. The serum concentration of growth hormone was measured 20 minutes after simultaneous administration of sodium pentobarbital and test compound. The degree of inhibition of serum growth hormone concentration then was determined with respect to the control group, and the relative activities of D-Val^1 -somatostatin and somatostatin itself were compared.
# [2] = system: secretion from the pancreas induced by secretin and cholecystokinin; experiment: inhibition of pancreatic secretion in dogs with pancreatic and total gastric fistula; assay type: in vivo, dog; conditions: three dogs; 0.75 μg/kg-hr. for one hour
# Procedure: In three dogs having both pancreatic and total gastric fistula, secretion from the pancreas was induced by infusion of secretin at 2 units/kg-hr. and cholecystokinin at 0.45 unit/kg-hr., and secretion of gastric HCl by infusion of tetragastrin at 0.5 μg/kg-hr. After a steady response was established, each dog received D-Val^1 -somatostatin for one hour at 0.75 μg/kg-hr. The peak inhibitory effect expressed as percent change over control for total protein was -51%
# [3] = system: gut motility (pylorus, duodenum, antrum pressure); experiment: action on gut motility in conscious dogs (intralumenal pressure); assay type: in vivo, dog; conditions: three conscious dogs; intravenous infusion over ten minutes
# Procedure: D-Val^1 -somatostatin also was tested for its action on gut motility in conscious dogs. Three dogs having intralumenal catheters placed in the antrum, duodenum, and pylorus were used. Pressure changes in the gut lumen were recorded on a Visicorder using strain gauges and miniature light beam galvanometers. After a steady state control was established, D-Val^1 -somatostatin was infused intravenously over a ten minute period. […] The minimum effective dose required to increase the pyloric pressure and to decrease the duodenum and antrum pressures was <0.125 μg./kg.-10 minutes. This compares to an activity for somatostatin itself of 0.125 to 0.25 μg./kg.-10 minutes.
# [4] = system: gastric HCl secretion induced by the C-terminal tetrapeptide of gastrin; experiment: in vivo inhibition of gastric acid secretion in dogs with chronic fistula and Heidenhain pouch; design: species or system dog
# Procedure: D-Val^1 -somatostatin was tested in dogs for its in vivo inhibition of gastric acid secretion. In six dogs with chronic fistula and Heidenhain pouch, gastric HCl secretion was induced by infusion of the C-terminal tetrapeptide of gastrin at 0.5 μg/kg-hr. Each dog served as its own control, receiving on a separate day only the tetrapeptide. On another day, the six dogs received the tetrapeptide, and, after one hour of steady state secretion of HCl, D-Val^1 -somatostatin was infused at 0.75 μg/kg-hr. for one hour. Collection of gastric acid samples was continued for an additional 1.5 hours at 15 minute intervals. The samples were titrated to pH 7 with an automatic titrator. The maximal inhibitory effect of the D-Val^1 -somatostatin was extrapolated against the dose-response curve of somatostatin, and the relative potency of the analog to that of somatostatin is expressed as percent activity. D-Val^1 -somatostatin inhibited steady state acid secretion induced by the C-terminal tetrapeptide of gastrin by 85.1 ± 6.0% standard error of mean. This effect is equivalent to that of 0.935 μg/kg-hr. of somatostatin. Its activity relative to that of somatostatin thus is 125%.
compound,measurement,setting,value
CC(C)[C@@H](N)C(=O)NCC(=O)N[C@H]1CSSC[C@@H](C(=O)O)NC(=O)[C@H](CO)NC(=O)[C@H]([C@@H](C)O)NC(=O)[C@H](Cc2ccccc2)NC(=O)[C@H]([C@@H](C)O)NC(=O)[C@H](CCCCN)NC(=O)[C@H](Cc2c[nH]c3ccccc23)NC(=O)[C@H](Cc2ccccc2)NC(=O)[C@H](Cc2ccccc2)NC(=O)[C@H](CC(N)=O)NC(=O)[C@H](CCCCN)NC1=O [D-Val^1 -somatostatin] (H-[dV]GCKNFFWKTFTSC-OH; disulfide 3-14),inhibition of the increase in growth hormone secretion over control,[1]; 2 μg./rat subcutaneously,2%
same,inhibition of the increase in growth hormone secretion over control,[1]; 50 μg./rat subcutaneously,73%
same,peak inhibitory effect expressed as percent change over control for total protein,[2],-51%
same,effect on intralumenal pressure,[3],initially increased the intralumenal pressure in the pylorus and then decreased it whereas the pressure in the duodenum and the antrum remained depressed throughout the test
same,minimum effective dose required to increase the pyloric pressure and to decrease the duodenum and antrum pressures,[3],< 0.125 μg./kg.-10 minutes
same,equivalent dose of somatostatin giving the same effect,"[4]; extrapolated against the dose-response curve of somatostatin, analog at 0.75 μg/kg-hr.",0.935 μg/kg-hr.
same,activity relative to that of somatostatin,"[4]; gastric acid secretion, dogs",125%
same,inhibition of steady state acid secretion induced by the C-terminal tetrapeptide of gastrin,"[4]; six dogs, infused at 0.75 μg/kg-hr. for one hour, maximal inhibitory effect, ± standard error of mean",85.1 ± 6.0%

# — patent US4100117A, “Somatostatin analogs and intermediates thereto” (Eli Lilly and Company, priority 1977, dated 1978)
